Where a SMILES comes first, the peptide text is derived from it.
System: Differentiated human macrophages
Assay: Cellular uptake of Alexa Fluor 555-labeled HMGB1 by differentiated macrophages
Assay type: cell-based
Conditions: P2-1 10 µg/ml, HMGB1 0.5 µg/ml, 2 h, 37 °C
Experimental: plots and heatmaps were generat ed via ggplot2 and pheatmap packages in R, respectively. Genes with an adjusted P -value < 0.05 and a |log2 fold change| > 1 were considered differentially expressed.
Human macrophage differentiation and treatment
Human PBMCs were differentiated into macrophages by culturing in human macrophage colony-stimulating factor (M-CSF, 20 ng/ml) for 5 – 6 d. Differentiated macrophages were maintained in Dulbecco’s modified Eagle’s medium supplemented with 1% penicillin/streptomycin and 10% human serum. […]
Cell viability was assessed via the tryp an blue excl usion and lactat e dehyd ro genase (LDH) release method as previously described . For trypan blue exclusion, random phase-contr ast images were captur ed , and the percentage of nonviable, trypan blue-stained cells was calculated. LDH release in the culture medium was quantified with an LDH Ass ay Kit (Cat. #L7572, Pointe Scientific Inc., Canton, MI, USA) according to the manufacturer ’s instructions. Optical density was measured at 340 nm, and LDH content was expressed as a per centag e of maximal release in the presence of 2% Triton X-100. […]
#H-1200, Vector Laborat ories, Inc., Newark, CA, USA) for nuclear counterstaining. Endocytic uptake of Alexa Fluor 555- labeled HMGB1 (red) was visualized via the Olympus IX51 inverted fluorescence & phase contrast tissue culture microscope. […]

In the case of CCCC[C@H](NC(=O)[C@H](Cc1c[nH]cn1)NC(=O)[C@@H](NC(=O)[C@H](CCCCN)NC(=O)[C@@H](N)[C@@H](C)O)C(C)C)C(=O)N[C@@H](CCCCN)C(=O)N[C@@H](CO)C(=O)N[C@@H](Cc1ccccc1)C(=O)N[C@@H](CC(C)C)C(=O)N[C@@H](C)C(=O)N[C@@H](Cc1ccccc1)C(=O)N[C@@H](CCC(N)=O)C(=O)N[C@H](C(=O)N[C@@H](CCCCN)C(=O)N[C@H](C(=O)O)[C@@H](C)O)[C@@H](C)O [P2-1] (HELM PEPTIDE1{T.K.V.H.[Nle].K.S.F.L.A.F.Q.T.K.T}$$$$V2.0; N-terminus and C-terminus assumed), the “HMGB1 cellular uptake, in words” value is reported as “markedly reduced Alexa Fluor 555-HMGB1 uptake”.

Reference: publication PMC12914960, “Repurposing a detrimental antibody epitope as targeted therapeutics for sepsis and rheumatoid arthritis” (Military Medical Research, 2026)
